The text below walks through data of PubChem BioAssay AID1259411 (Chemical Carcinogenesis Research Information System (CCRIS), 2018).

Calls of active or inactive are those of the source. How the calls were made is not given here.

This data set has as its system rodent carcinogenicity bioassays, tumor incidence. Description: CCRIS carcinogenicity studies. In outline:
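Archive of carcinogenicity, mutagenicity, tumor promotion and tumor inhibition results drawn from journals, NCI reports and other sources, expert-reviewed; covers 1985-2011 and is no longer updated.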

As for `C[C@]12CC[C@@H]3c4ccc(O)cc4CC[C@H]3[C@@H]1C[C@@H](O)C2=O`, the carcinogen call (Species: HAMSTER, Strain/Sex: SYRIAN/MALE, Route: SUBCUTANEOUS IMPLANT, Dose: 0, 20 MG IN PELLETS IMPLANTED EVERY 2.5 MO FOR 9 MO (STUDY DURATION: 9 MO), Tumor Site: Type of Lesion: KIDNEY: TUMOR) is “active; positive”.
For `O=Cc1ccc(CCl)o1`, the carcinogen call (Species: MOUSE, Strain/Sex: B6C3F1/MALE, Route: INTRAPERITONEAL, Dose: 0, 0.1, 0.25 UMOL/G IN 5 µL DMSO/G BW ONCE (STUDY DURATION: 10 MO), Dose: 0, 0.1, 0.25 UMOL/G IN 5 µL DMSO/G BW ONCE (STUDY DURATION: 10 MO), Tumor Site: Type of Lesion: LIVER: TUMOR) was “active; positive”.
For the compound `Cc1c(N)nc(C(CC(N)=O)NCC(N)C(N)=O)nc1C(=O)NC(C(=O)NC(C)C(O)C(C)C(=O)NC(C(=O)NCCc1nc(-c2nc(C(=O)NCCC[S+](C)C)cs2)cs1)C(C)O)C(O[C@@H]1O[C@@H](CO)[C@@H](O)[C@H](O)[C@@H]1O[C@H]1O[C@H](CO)[C@@H](O)[C@H](OC(N)=O)[C@@H]1O)c1cnc[nH]1` (some centres not stated), the carcinogen call is “active; positive” (Species: RAT, Strain/Sex: SPRAGUE-DAWLEY/FEMALE, Route: SUBCUTANEOUS, Dose: 0, 0.35, 0.7, 1.40, 2.8 MG/KG IN SALINE 1/WK FOR 10 WK THEN 1/2 WK FOR 52 WK OR FOR LIFETIME (STUDY DURATION: 650 D), Dose: 0, 0.35, 0.7, 1.40, 2.8 MG/KG IN SALINE 1/WK FOR 10 WK THEN 1/2 WK FOR 52 WK OR FOR LIFETIME (STUDY DURATION: 650 D), Tumor Site: Type of Lesion: KIDNEY: MALIGNANT OR BENIGN TUMOR, INJECTION SITE: MALIGNANT TUMOR) and “active; positive” (Species: RAT, Strain/Sex: SPRAGUE-DAWLEY/MALE, Route: SUBCUTANEOUS, Dose: 0, 0.35, 0.70, 1.40, 2.8 MG/KG IN SALINE 1/WK FOR 10 WK THEN 1/2 WK FOR 52 WK OR FOR LIFETIME (STUDY DURATION: 650 D), Dose: 0, 0.35, 0.70, 1.40, 2.8 MG/KG IN SALINE 1/WK FOR 10 WK THEN 1/2 WK FOR 52 WK OR FOR LIFETIME (STUDY DURATION: 650 D), Tumor Site: Type of Lesion: KIDNEY: MALIGNANT OR BENIGN TUMOR, INJECTION SITE: MALIGNANT TUMOR).
With `O=Nc1cc2c3ccccc3ccc2c2ccccc12`, the carcinogen call (Species: MOUSE, Strain/Sex: SWISS/FEMALE, Route: INTRAPERITONEAL, Dose: 0, 100 NMOL (TOTAL DOSE) 1/7, 2/7 AND 4/7 ADMINISTERED ON DAYS 1, 8 AND 15 OF LIFE RESPECTIVELY (STUDY DURATION: 32 WK), Tumor Site: Type of Lesion: LUNG: TUMOR) was “active; positive” and the carcinogen call (Species: MOUSE, Strain/Sex: SWISS/MALE, Route: INTRAPERITONEAL, Dose: 0, 100 NMOL (TOTAL DOSE) 1/7, 2/7 AND 4/7 ADMINISTERED ON DAYS 1, 8 AND 15 OF LIFE RESPECTIVELY (STUDY DURATION: 32 WK), Tumor Site: Type of Lesion: LUNG: TUMOR, LIVER: TUMOR) was “active; positive”.
As for `S=c1[nH]c2ccccc2s1`, the carcinogen call was “equivocal” (Species: MOUSE, Strain/Sex: B6C3F1/FEMALE, Route: GAVAGE, Dose: 0, 375, 750 MG/KG IN CORN OIL 5D/WK FOR 103 WK (STUDY DURATION: 104 WK), Dose: 0, 375, 750 MG/KG IN CORN OIL 5D/WK FOR 103 WK (STUDY DURATION: 104 WK), Tumor Site: Type of Lesion: LIVER: HEPATOCELLULAR ADENOMA OR CARCINOMA); “inactive; negative” (Species: MOUSE, Strain/Sex: B6C3F1/MALE, Route: GAVAGE, Dose: 0, 375, 750 MG/KG IN CORN OIL 5D/WK FOR 103 WK (STUDY DURATION: 104 WK), Dose: 0, 375, 750 MG/KG IN CORN OIL 5D/WK FOR 103 WK (STUDY DURATION: 104 WK)); “active; positive” (Species: RAT, Strain/Sex: F344/FEMALE, Route: GAVAGE, Dose: 0, 188, 375 MG/KG IN CORN OIL 5D/WK FOR 103 WK (STUDY DURATION: 105 WK), Dose: 0, 188, 375 MG/KG IN CORN OIL 5D/WK FOR 103 WK (STUDY DURATION: 105 WK), Tumor Site: Type of Lesion: PITUITARY GLAND: ADENOMA, PITUITARY GLAND: ADENOMA OR ADENOCARCINOMA, ADRENAL GLAND: PHEOCHROMOCYTOMA, Tumor Site: Type of Lesion: PITUITARY GLAND: ADENOMA, PITUITARY GLAND: ADENOMA OR ADENOCARCINOMA, ADRENAL GLAND: PHEOCHROMOCYTOMA); “active; positive” (Species: RAT, Strain/Sex: F344/MALE, Route: GAVAGE, Dose: 0, 375, 750 MG/KG IN CORN OIL 5D/WK FOR 103 WK (STUDY DURATION: 105 WK), Dose: 0, 375, 750 MG/KG IN CORN OIL 5D/WK FOR 103 WK (STUDY DURATION: 105 WK), Tumor Site: Type of Lesion: HEMATOPOIETIC SYSTEM: MONONUCLEAR CELL LEUKEMIA, PANCREAS: ACINAR CELL ADENOMA).
With `CC1=CC(=C(c2ccc(N)cc2)c2ccc(N)cc2)C=CC1=N`, the carcinogen call runs as follows: (Species: HUMAN, Route: ORAL, INHALATION, DERMAL, Tumor Site: Type of Lesion: URINARY BLADDER) “active; positive”; (Species: RAT, Strain/Sex: SPRAGUE-DAWLEY/FEMALE, Route: GAVAGE, Dose: 0, 200 MG/KG BW 2/WK FOR 8 WK WITH A 1 WK REST AFTER 2 WK THEN STARTING AT 9 WK 100 MG/KG BW 2/WK FOR DURATION OF STUDY) “inactive; negative”; (Species: RAT, Strain/Sex: SPRAGUE-DAWLEY/MALE, Route: GAVAGE, Dose: 0, 200 MG/KG BW 2/WK FOR 8 WK WITH A 1 WK REST AFTER 2 WK THEN STARTING AT 9 WK 100 MG/KG BW 2/WK FOR DURATION OF STUDY) “inactive; negative”.
For the compound `CCN(N=O)C(=O)NCC(C)=O`, the carcinogen call reads like this: (Species: RAT, Strain/Sex: F344/FEMALE, Route: GAVAGE, Dose: 0, 9.5, 19 MG/ML IN CORN OIL/ETHYL ACETATE (2:1) 2/WK FOR 30 WK (STUDY DURATION: LIFETIME), Dose: 0, 9.5, 19 MG/ML IN CORN OIL/ETHYL ACETATE (2:1) 2/WK FOR 30 WK (STUDY DURATION: LIFETIME), Tumor Site: Type of Lesion: LUNG: TUMOR, MAMMARY GLAND: CARCINOMA, UTERUS: TUMOR, FORESTOMACH: TUMOR, SPLEEN: TUMOR, ZYMBAL GLAND: TUMOR, SMALL INTE, Tumor Site: Type of Lesion: LUNG: TUMOR, MAMMARY GLAND: CARCINOMA, UTERUS: TUMOR, FORESTOMACH: TUMOR, SPLEEN: TUMOR, ZYMBAL GLAND: TUMOR, SMALL INTE) “active; positive”; (Species: RAT, Strain/Sex: F344/FEMALE, Route: ORAL, Dose: 0, 40, 80 MG/L IN DRINKING WATER 5 D/WK FOR 30 WK (STUDY DURATION: LIFETIME), Dose: 0, 40, 80 MG/L IN DRINKING WATER 5 D/WK FOR 30 WK (STUDY DURATION: LIFETIME), Tumor Site: Type of Lesion: LIVER: TUMOR, LUNG: TUMOR, MAMMARY GLAND: CARCINOMA, UTERUS: TUMOR, THYROID: FOLLICULAR TUMOR, COLON: TUMOR, NERVOUS SYS, Tumor Site: Type of Lesion: LIVER: TUMOR, LUNG: TUMOR, MAMMARY GLAND: CARCINOMA, UTERUS: TUMOR, THYROID: FOLLICULAR TUMOR, COLON: TUMOR, NERVOUS SYS) “active; positive”; (Species: RAT, Strain/Sex: F344/MALE, Route: GAVAGE, Dose: 0, 9.5, 19 MG/ML IN CORN OIL/ETHYL ACETATE (2:1) 2/WK FOR 30 WK (STUDY DURATION: LIFETIME), Dose: 0, 9.5, 19 MG/ML IN CORN OIL/ETHYL ACETATE (2:1) 2/WK FOR 30 WK (STUDY DURATION: LIFETIME), Tumor Site: Type of Lesion: LIVER: TUMOR, LUNG: TUMOR, MESOTHELIUM: TUMOR, NERVOUS SYSTEM: TUMOR, THYROID: FOLLICULAR TUMOR, FORESTOMACH: TUMOR, SPL, Tumor Site: Type of Lesion: LIVER: TUMOR, LUNG: TUMOR, MESOTHELIUM: TUMOR, NERVOUS SYSTEM: TUMOR, THYROID: FOLLICULAR TUMOR, FORESTOMACH: TUMOR, SPL) “active; positive”; (Species: RAT, Strain/Sex: F344/MALE, Route: ORAL, Dose: 0, 40, 80 MG/L IN DRINKING WATER FOR 5 D/WK FOR 30 WK (STUDY DURATION: LIFETIME), Dose: 0, 40, 80 MG/L IN DRINKING WATER FOR 5 D/WK FOR 30 WK (STUDY DURATION: LIFETIME), Tumor Site: Type of Lesion: LUNG: TUMOR, THYROID: FOLLICULAR TUMOR, COLON: TUMOR, MESOTHELIUM: TUMOR, NERVOUS SYSTEM: TUMOR, SKIN: TUMOR, ZYMBAL GLA, Tumor Site: Type of Lesion: LUNG: TUMOR, THYROID: FOLLICULAR TUMOR, COLON: TUMOR, MESOTHELIUM: TUMOR, NERVOUS SYSTEM: TUMOR, SKIN: TUMOR, ZYMBAL GLA) “active; positive”.
